Measurements published in PubChem BioAssay (NCI).
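Five compound concentrations were applied to cells in 96-well plates for 48 hours; endpoints were derived by simple linear interpolation of the resulting dose-response curve. TGI: total growth inhibition.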

Columns and labels:
Assay in all cases: growth of human tumour cells (NCI), 48 h
786-0 renal = system: 786-0 renal
A498 renal = system: A498 renal
A549 NSCLC = system: A549 NSCLC
ACHN renal = system: ACHN renal
BT-549 breast = system: BT-549 breast
CAKI-1 renal = system: CAKI-1 renal
CCRF-CEM leukemia = system: CCRF-CEM leukemia
COLO 205 colon = system: COLO 205 colon
DU-145 prostate = system: DU-145 prostate
EKVX NSCLC = system: EKVX NSCLC
HCC-2998 colon = system: HCC-2998 colon
HCT-116 colon = system: HCT-116 colon
HCT-15 colon = system: HCT-15 colon
HL-60(TB) leukemia = system: HL-60(TB) leukemia
HOP-62 NSCLC = system: HOP-62 NSCLC
HOP-92 NSCLC = system: HOP-92 NSCLC
HS 578T breast = system: HS 578T breast
HT29 colon = system: HT29 colon
IGROV1 ovarian = system: IGROV1 ovarian
K-562 leukemia = system: K-562 leukemia
KM12 colon = system: KM12 colon
LOX IMVI melanoma = system: LOX IMVI melanoma
M14 melanoma = system: M14 melanoma
MCF7 breast = system: MCF7 breast
MDA-MB-231 breast = system: MDA-MB-231 breast
MDA-MB-435 = system: MDA-MB-435
MDA-N = system: MDA-N
MOLT-4 leukemia = system: MOLT-4 leukemia
NCI-H226 lung = system: NCI-H226 lung
NCI-H23 lung = system: NCI-H23 lung
NCI-H460 lung = system: NCI-H460 lung
NCI-H522 lung = system: NCI-H522 lung
NCI/ADR-RES ovarian = system: NCI/ADR-RES ovarian
OVCAR-3 ovarian = system: OVCAR-3 ovarian
OVCAR-4 ovarian = system: OVCAR-4 ovarian
OVCAR-5 ovarian = system: OVCAR-5 ovarian
OVCAR-8 ovarian = system: OVCAR-8 ovarian
PC-3 prostate = system: PC-3 prostate
RPMI-8226 leukemia = system: RPMI-8226 leukemia
RXF 393 renal = system: RXF 393 renal
SF-268 CNS = system: SF-268 CNS
SF-295 CNS = system: SF-295 CNS
SF-539 CNS = system: SF-539 CNS
SK-MEL-2 melanoma = system: SK-MEL-2 melanoma
SK-MEL-5 melanoma = system: SK-MEL-5 melanoma
SK-OV-3 ovarian = system: SK-OV-3 ovarian
SN12C renal = system: SN12C renal
SNB-19 CNS = system: SNB-19 CNS
SNB-75 CNS = system: SNB-75 CNS
SW-620 colon = system: SW-620 colon
T-47D breast = system: T-47D breast
TK-10 renal = system: TK-10 renal
U251 CNS = system: U251 CNS
UACC-257 melanoma = system: UACC-257 melanoma
UACC-62 melanoma = system: UACC-62 melanoma
UO-31 renal = system: UO-31 renal
MALME-3M melanoma = system: MALME-3M melanoma
SK-MEL-28 melanoma = system: SK-MEL-28 melanoma
SR leukemia = system: SR leukemia

`Cc1cc(O)c(/C=N/C(=S)Nc2ccccc2)c(=O)o1` gave a TGI (786-0 renal) of over 100 µM, a TGI (A498 renal) of over 100 µM and a TGI (A549 NSCLC) of over 100 µM. The TGI (ACHN renal) was over 100 µM, the TGI (BT-549 breast) was over 100 µM and the TGI (CAKI-1 renal) was over 100 µM. The TGI (CCRF-CEM leukemia) was over 100 µM, the TGI (COLO 205 colon) was over 100 µM and the TGI (DU-145 prostate) was over 100 µM. The TGI (EKVX NSCLC) was over 100 µM, the TGI (HCC-2998 colon) was over 100 µM and the TGI (HCT-116 colon) was over 100 µM. The TGI (HCT-15 colon) was over 100 µM, the TGI (HL-60(TB) leukemia) was over 100 µM and the TGI (HOP-62 NSCLC) was over 100 µM. The TGI (HOP-92 NSCLC) was over 100 µM, the TGI (HS 578T breast) was over 100 µM and the TGI (HT29 colon) was over 100 µM. For the same compound, the TGI (IGROV1 ovarian) was over 100 µM, the TGI (K-562 leukemia) was over 100 µM and the TGI (KM12 colon) was over 100 µM. For the same compound, the TGI (LOX IMVI melanoma) was over 100 µM, the TGI (M14 melanoma) was over 100 µM and the TGI (MCF7 breast) was over 100 µM. The TGI (MDA-MB-231 breast) was over 100 µM, the TGI (MDA-MB-435) was over 100 µM and the TGI (MDA-N) was over 100 µM. The TGI (MOLT-4 leukemia) was over 100 µM, the TGI (NCI-H226 lung) was over 100 µM and the TGI (NCI-H23 lung) was over 100 µM. For the same compound, the TGI (NCI-H460 lung) was over 100 µM, the TGI (NCI-H522 lung) was over 100 µM and the TGI (NCI/ADR-RES ovarian) was over 100 µM. For the same compound, the TGI (OVCAR-3 ovarian) was over 100 µM, the TGI (OVCAR-4 ovarian) was over 100 µM and the TGI (OVCAR-5 ovarian) was over 100 µM. It also gave a TGI (OVCAR-8 ovarian) of over 100 µM, a TGI (PC-3 prostate) of over 100 µM and a TGI (RPMI-8226 leukemia) of over 100 µM. The TGI (RXF 393 renal) was over 100 µM, the TGI (SF-268 CNS) was over 100 µM and the TGI (SF-295 CNS) was over 100 µM. It also gave a TGI (SF-539 CNS) of over 100 µM, a TGI (SK-MEL-2 melanoma) of over 100 µM and a TGI (SK-MEL-5 melanoma) of over 100 µM. The TGI (SK-OV-3 ovarian) was over 100 µM, the TGI (SN12C renal) was over 100 µM and the TGI (SNB-19 CNS) was over 100 µM. It also gave a TGI (SNB-75 CNS) of over 100 µM, a TGI (SW-620 colon) of over 100 µM and a TGI (T-47D breast) of over 100 µM. The TGI (TK-10 renal) was over 100 µM, the TGI (U251 CNS) was over 100 µM and the TGI (UACC-257 melanoma) was over 100 µM. The TGI (UACC-62 melanoma) was over 100 µM and the TGI (UO-31 renal) was over 100 µM.
With `O=C(Nc1sccc1S(=O)(=O)c1ccccc1)c1ccccc1` the TGI (786-0 renal) was over 100 µM, the TGI (A498 renal) was over 100 µM and the TGI (A549 NSCLC) was over 100 µM. It also gave a TGI (ACHN renal) of over 100 µM, a TGI (BT-549 breast) of over 100 µM and a TGI (CAKI-1 renal) of over 100 µM. It also gave a TGI (COLO 205 colon) of over 100 µM, a TGI (DU-145 prostate) of over 100 µM and a TGI (EKVX NSCLC) of over 100 µM. For the same compound, the TGI (HCC-2998 colon) was over 100 µM, the TGI (HCT-116 colon) was over 100 µM and the TGI (HCT-15 colon) was over 100 µM. It also gave a TGI (HOP-62 NSCLC) of over 100 µM, a TGI (HOP-92 NSCLC) of over 100 µM and a TGI (HS 578T breast) of over 100 µM. The TGI (HT29 colon) was over 100 µM, the TGI (IGROV1 ovarian) was over 100 µM and the TGI (K-562 leukemia) was over 19.9 µM. The TGI (KM12 colon) was over 100 µM, the TGI (LOX IMVI melanoma) was over 100 µM and the TGI (M14 melanoma) was over 100 µM. The TGI (MALME-3M melanoma) was over 100 µM, the TGI (MCF7 breast) was over 100 µM and the TGI (MDA-MB-231 breast) was over 100 µM. The TGI (MDA-MB-435) was over 100 µM, the TGI (MDA-N) was over 100 µM and the TGI (MOLT-4 leukemia) was over 100 µM. For the same compound, the TGI (NCI-H226 lung) was over 100 µM, the TGI (NCI-H23 lung) was over 100 µM and the TGI (NCI-H460 lung) was over 31.6 µM. The TGI (NCI-H522 lung) was over 100 µM, the TGI (NCI/ADR-RES ovarian) was over 100 µM and the TGI (OVCAR-3 ovarian) was over 100 µM. For the same compound, the TGI (OVCAR-4 ovarian) was over 100 µM, the TGI (OVCAR-5 ovarian) was over 100 µM and the TGI (OVCAR-8 ovarian) was over 100 µM. For the same compound, the TGI (PC-3 prostate) was over 100 µM, the TGI (RPMI-8226 leukemia) was over 100 µM and the TGI (SF-268 CNS) was over 100 µM. It also gave a TGI (SF-295 CNS) of over 100 µM, a TGI (SF-539 CNS) of over 100 µM and a TGI (SK-MEL-2 melanoma) of over 100 µM. It also gave a TGI (SK-MEL-28 melanoma) of over 100 µM, a TGI (SK-MEL-5 melanoma) of over 100 µM and a TGI (SK-OV-3 ovarian) of over 100 µM. It also gave a TGI (SN12C renal) of over 100 µM, a TGI (SNB-19 CNS) of over 100 µM and a TGI (SNB-75 CNS) of over 100 µM. It also gave a TGI (SW-620 colon) of over 100 µM, a TGI (T-47D breast) of over 100 µM and a TGI (TK-10 renal) of over 100 µM. For the same compound, the TGI (U251 CNS) was over 100 µM, the TGI (UACC-257 melanoma) was over 100 µM and the TGI (UACC-62 melanoma) was over 100 µM. It also gave a TGI (UO-31 renal) of over 100 µM.
In the case of `CC/C=C/C[C@H](O)[C@H]1C[C@H]2O[C@H](CC(=O)OC)C[C@H]2O1`, the TGI (786-0 renal) is reported as over 100 µM, the TGI (A498 renal) is reported as over 100 µM and the TGI (A549 NSCLC) is reported as over 100 µM. It also gave a TGI (ACHN renal) of over 100 µM, a TGI (BT-549 breast) of over 100 µM and a TGI (CAKI-1 renal) of over 100 µM. It also gave a TGI (CCRF-CEM leukemia) of over 100 µM, a TGI (COLO 205 colon) of over 100 µM and a TGI (DU-145 prostate) of over 100 µM. For the same compound, the TGI (EKVX NSCLC) was over 100 µM, the TGI (HCC-2998 colon) was over 100 µM and the TGI (HCT-116 colon) was over 100 µM. For the same compound, the TGI (HCT-15 colon) was over 100 µM, the TGI (HL-60(TB) leukemia) was over 100 µM and the TGI (HOP-62 NSCLC) was over 100 µM. It also gave a TGI (HS 578T breast) of over 100 µM, a TGI (HT29 colon) of over 100 µM and a TGI (IGROV1 ovarian) of over 100 µM. It also gave a TGI (K-562 leukemia) of over 100 µM, a TGI (KM12 colon) of over 100 µM and a TGI (LOX IMVI melanoma) of over 100 µM. The TGI (M14 melanoma) was over 100 µM, the TGI (MALME-3M melanoma) was over 100 µM and the TGI (MCF7 breast) was over 100 µM. The TGI (MDA-MB-231 breast) was over 100 µM, the TGI (MDA-MB-435) was over 100 µM and the TGI (MDA-N) was over 100 µM. It also gave a TGI (MOLT-4 leukemia) of over 100 µM, a TGI (NCI-H226 lung) of over 100 µM and a TGI (NCI-H23 lung) of over 100 µM. For the same compound, the TGI (NCI-H460 lung) was over 100 µM, the TGI (NCI-H522 lung) was over 100 µM and the TGI (NCI/ADR-RES ovarian) was over 100 µM. It also gave a TGI (OVCAR-3 ovarian) of over 100 µM, a TGI (OVCAR-4 ovarian) of over 100 µM and a TGI (OVCAR-5 ovarian) of over 100 µM. It also gave a TGI (OVCAR-8 ovarian) of over 100 µM, a TGI (PC-3 prostate) of over 100 µM and a TGI (RPMI-8226 leukemia) of over 100 µM. The TGI (RXF 393 renal) was over 100 µM, the TGI (SF-268 CNS) was over 100 µM and the TGI (SF-295 CNS) was over 100 µM. It also gave a TGI (SK-MEL-2 melanoma) of over 100 µM, a TGI (SK-MEL-28 melanoma) of over 100 µM and a TGI (SK-MEL-5 melanoma) of over 100 µM. It also gave a TGI (SK-OV-3 ovarian) of over 100 µM, a TGI (SN12C renal) of over 100 µM and a TGI (SNB-19 CNS) of over 100 µM. It also gave a TGI (SNB-75 CNS) of over 100 µM, a TGI (SR leukemia) of over 100 µM and a TGI (SW-620 colon) of over 100 µM. It also gave a TGI (T-47D breast) of over 100 µM, a TGI (U251 CNS) of over 100 µM and a TGI (UACC-62 melanoma) of over 100 µM. It also gave a TGI (UO-31 renal) of over 100 µM.
